The values below come from patent US5952335A, “Fused polycyclic heterocycle derivatives” (Eisai Co., Ltd., priority 1995, dated 1999).

Structures can show the parent of a compound that is named as a salt. Where two headings read alike, the source gives them in different places.

The subject of one test is P388 cells. As to the kind of experiment: in vitro Antitumor Test on P388 Cells (Mouse Leukemic Cells), MTT, 3 days. In kind it is cell-based. To be noted: 72 h, 3 days incubation. The method, then:
P388 cells suspended in RPMI1640 medium (manufactured by Sanko Junyaku) containing 10% of fetal calf serum, (100 U/ml) of penicillin, 100 μg/ml of streptomycin, 5×10^-5 M of mercaptoethanol and 1 mM of sodium pyruvate were pipetted into a 96-well U-bottomed microplate at a ratio of 1.25×10^3 cells (0.1 ml) per well and incubated in a incubator containing 5% of carbon dioxide at 37° C. for a day. A compound of the present invention was dissolved in dimethyl sulfoxide to give a concentration of 10^-2 M and then diluted with the 10% fetal calf serum-containing RPMI1640 culture medium to give a concentration of 10^-4 or 10^-5 M. By taking this concentration as the maximal level, threefold serial dilution was effected with the use of the 10% fetal calf serum-containing RPMI1640 culture medium. Then these dilutions were added to the P388 incubation plate as described above at a ratio of 0.1 ml per well followed by incubation in an incubator containing 5% of carbon dioxide at 37° C. for 3 days. After the completion of the incubation, 0.05 ml/well of a 3.3 mg/ml solution of MTT [3-(4,5-dimethylthiazol-2-yl)-2,5-diphenyltetrazolium bromide] was added thereto and the incubation was continued for additional 2 hours. The microplate was centrifuged and the supernatant was aspirated off from each well. Then the formazan thus formed was dissolved in 0.1 ml of dimethyl sulfoxide and the absorbance thereof at 540 nm measured with a microplate reader was taken as an indication of the viable cell count. In accordance with the following formula, the inhibitory ratio was calculated and the 50% inhibitory concentration (IC50) of the test compound was determined: [formula] wherein T means the absorbance of a well containing the test compound; and C means the absorbance of a well containing no test compound.

For test [1], the system named is M5076 (Mouse Reticulum Cell Sarcoma). As to the kind of experiment: in vivo Antitumor Test on M5076 (Mouse Reticulum Cell Sarcoma) transplanted in BDF1 mice. Particulars: M5076, ip, 504 h, i.p.; for survival rate on day 21 at 50 mg/kg / inhibition in vivo at 50 mg/kg: 50 mg/kg/day. The method, then: M5076 cells (1×10^6 /animal) were subcutaneously transplanted into the side part of each BDF1 mouse (aged 6 to 7 weeks, female). A compound of the present invention was dissolved in a 5% solution of glucose. From the next day of the transplantation, the solution of the compound was intraperitoneally administered to the animals once a day in accordance with each schedule. On the other hand, a 5% solution of glucose was administered to the control group. The control group had 10 animals, while each test group had 5 animals.
On the 21st day after the transplantation, tumors were taken out and weighed. The tumor multiplication inhibitory ratio of each test group to the control group was determined in accordance with the following formula: [formula] wherein T means the average tumor weight of the test group; and C means the average tumor weight of the control group.

Where [2] appears, read: d1,2,3,4 after transplantation, read-out: Survival rate on the judgement day (21th day).
The mark [3] stands for this setting: d1,2,3,4 after transplantation, tumor weight day 21, read-out: Proliferation inhibitory ratio (%).

The IC50 is the point on the concentration scale where inhibition reaches its midpoint. A higher IC50 goes with a need for much substance.

On to `O=c1c2cccc3c4c5ccccc5ccc4n(c(=O)n1CCN1CCCC1)c23` [Example 12, 5-[2-(1-Pyrrolidinyl)ethyl]-4H-benzo[c]pyrimido[5,6,1-jk]carbazole-4,6(5H)-dione hydrochloride], for which the concentration for half-maximal inhibition (IC50) in the test on P388 cells was determined as 62 nM. Moreover, the survival rate on day 21 at 50 mg/kg in test [1] (setting [2]) turned out to be 100%. Besides, the inhibition in vivo at 50 mg/kg in test [1] (setting [3]) was 93.9%. Turning to `CN(C)CCn1c(=O)c2cccc3c4c(n(c1=O)c32)Cc1ccccc1-4` [Example 20, 2-[2-(Dimethylamino)ethyl]-1H,11H-indeno[1',2':4,5]pyrrolo[3,2,1-ij]quinazoline-1,3(2H)-dione hydrochloride], 570 nM corresponded to half-maximal inhibition in the test on P388 cells (IC50). The survival rate on day 21 at 12.5 mg/kg in test [1] (12.5 mg/kg/day, d1,2,3,4 after transplantation, read-out: Survival rate on the judgement day (21th day)) worked out at 100%. In addition, the inhibition in vivo at 12.5 mg/kg in test [1] (12.5 mg/kg/day, d1,2,3,4 after transplantation, tumor weight day 21, read-out: Proliferation inhibitory ratio (%)) is 70.8%. On to `COc1ccc2ccc3c(c2c1)c1cccc2c(=O)n(CCN(C)C)c(=O)n3c21` [Example 26, 5-[2-(Dimethylamino)ethyl]-12-methoxy-4H-benzo[c]pyrimido [5,6,1-jk]carbazole-4,6(5H)-dione hydrochloride], for which the IC50 in the test with P388 cells stood at 230 nM. The survival rate on day 21 at 50 mg/kg in test [1] (setting [2]) turned out to be 100%. Further, in test [1] (setting [3]), the inhibition in vivo at 50 mg/kg was 97.4%. Turning to `CN(C)CCn1c(=O)c2cccc3c4c5cnccc5ccc4n(c1=O)c23` [Example 33, 9-[2-(Dimethylamino)ethyl]-8H-pyrido[4,3-c]pyrimido[5,6,1-jk]carbazole-8,10(9H)-dione dihydrochloride], it took 56 nM to reach half-maximal inhibition with P388 cells (IC50). In addition, the survival rate on day 21 at 50 mg/kg in test [1] (d9 after transplantation, read-out: Survival rate on the judgement day (21th day)) came to 100%. Besides, the inhibition in vivo at 50 mg/kg in test [1] (d9 after transplantation, tumor weight day 21, read-out: Proliferation inhibitory ratio (%)) was 74.9%.

In the test with P388 cells, `CN(C)CCn1c(=O)c2cccc3c4c5ccc(C#N)cc5ccc4n(c1=O)c23` [Example 35, 11-Cyano-5-[2-(dimethylamino)ethyl]-4H-benzo[c]pyrimido [5,6,1-jk]carbazole-4,6(5H)-dione hydrochloride] displayed an IC50 of 63 nM. Further, in test [1] (25 mg/kg/day, d9 after transplantation, read-out: Survival rate on the judgement day (21th day)), the survival rate on day 21 at 25 mg/kg came to 100%. For the same compound, in test [1] (25 mg/kg/day, d9 after transplantation, tumor weight day 21, read-out: Proliferation inhibitory ratio (%)), the inhibition in vivo at 25 mg/kg turned out to be 78.7%. `CN(C)CCn1c(=O)c2cccc3c4c5ccc(Br)cc5ccc4n(c1=O)c23` [Example 41, 11-Bromo-5-[2-(dimethylamino)ethyl]-4H-benzo[c]pyrimido [5,6,1-jk]carbazole-4,6(5H)-dione hydrochloride]: in the test with P388 cells, the IC50 came out at 320 nM. Same read-out and setting: in the case of `CN(C)CCn1c(=O)c2cccc3c4cc5ccccc5cc4n(c1=O)c23` [Example 42, 2-[2-(Dimethylamino)ethyl]-1H-benzo[b]pyrimido[5,6,1-jk]carbazole-1,3(2H)-dione hydrochloride] it was 49 nM; in that of `CN(C)CCn1c(=O)c2cccc3c4c5c(ccc4n(c1=O)c23)CCCC5` [Example 43, 5-[2-(Dimethylamino)ethyl]-10,11,12,13-tetrahydro-4H-benzo[b]pyrimido[5,6,1-jk]carbazole-4,6(5H)-dione hydrochloride], 66 nM. Take `CN(C)CCn1c(=O)c2cccc3c4c5c(ccc4n(c1=O)c23)C(=O)C(C)(C)CC5` [Example 44, 12,13-Dihydro-11,11-dimethyl-5-[2-(dimethylamino)ethyl]-4H-benzo[c]pyrimido[5,6,1-jk]carbazole-4,6,10(5H,11H)-trione hydrochloride]: in the test with P388 cells, the IC50 worked out at 360 nM.

`COc1cc2c(=O)n(CCN(C)C)c(=O)n3c4ccc5ccccc5c4c(c1)c23` [Example 45, 5-[2-(Dimethylamino)ethyl]-2-methoxy-4H-benzo[c]pyrimido [5,6,1-jk]carbazole-4,6(5H)-dione hydrochloride]: in the test with P388 cells, the IC50 was 160 nM. Still for that read-out and setting: with `CN(C)CCn1c(=O)c2cccc3c4c5ccc(O)cc5ccc4n(c1=O)c23` [Example 46, 5-[2-(Dimethylamino)ethyl]-11-hydroxy-4H-benzo[c]pyrimido [5,6,1-jk]carbazole-4,6(5H)-dione hydrochloride] the figure was 77 nM. For the compound `CN(C)CCn1c(=O)c2cc(N)cc3c4c5ccccc5ccc4n(c1=O)c23` [Example 47, 2-Amino-5-[2-(dimethylamino)ethyl]-4H-benzo[c]pyrimido [5,6,1-jk]carbazole-4,6(5H)-dione dihydrochloride], in the test with P388 cells, half-maximal inhibition (IC50) was put at 250 nM. The same measure, in the same setting: with `Cc1ccc(S(=O)(=O)Nc2ccc3c(ccc4c3c3cccc5c(=O)n(CCN(C)C)c(=O)n4c53)c2)cc1` [Example 48, 5-[2-(Dimethylamino)ethyl]-11-(4-methylbenzenesulfonamido)-4H-benzo[c]pyrimido[5,6,1-jk]carbazole-4,6(5H)-dione hydrochloride] the figure was 350 nM. In the test with P388 cells, `CN(C)CCn1c(=O)c2cccc3c4c5ccc(N)cc5ccc4n(c1=O)c23` [Example 49, 11-Amino-5-[2-(dimethylamino)ethyl]-4H-benzo[c]pyrimido [5,6,1-jk]carbazole-4,6(5H)-dione dihydrochloride] showed an IC50 of 30 nM. Same read-out and setting: with `CC(=O)Nc1ccc2c(ccc3c2c2cccc4c(=O)n(CCN(C)C)c(=O)n3c42)c1` [Example 50, 11-Acetamido-5-[2-(dimethylamino)ethyl]-4H-benzo[c]pyrimido[5,6,1-jk]carbazole-4,6(5H)-dione hydrochloride] the figure was 7.1 nM; with `CN(C)CCN(C)CCn1c(=O)c2cccc3c4c5ccccc5ccc4n(c1=O)c23` [Example 51, 5-[2-[N-[2-(Dimethylamino)ethyl]-N-methylamino]ethyl]-4H-benzo[c]pyrimido[5,6,1-jk]carbazole-4,6(5H)-dione dihydrochloride], 290 nM. `CN(CCO)CCn1c(=O)c2cccc3c4c5ccccc5ccc4n(c1=O)c23` [Example 52, 5-[2-[N-(2-(Hydroxyethyl)-N-methylamino]ethyl]-4H-benzo[c]pyrimido[5,6,1-jk]carbazole-4,6(5H)-dione hydrochloride] showed an IC50 in the test on P388 cells of 150 nM. Further, the survival rate on day 21 at 50 mg/kg in test [1] (setting [2]) was found to be 100%. In addition, the inhibition in vivo at 50 mg/kg in test [1] (setting [3]) was 70.6%. In the test on P388 cells, `CN(C)CCn1c(=O)c2cc(O)cc3c4c5ccccc5ccc4n(c1=O)c23` [Example 53, 5-[2-[Dimethylamino)ethyl]-2-hydroxy-4H-benzo[c]pyrimido [5,6,1-jk]carbazole-4,6(5H)-dione hydrochloride] gave an IC50 of 300 nM. On the same count and under the same terms, with `COc1cccc2c1ccc1c3cccc4c(=O)n(CCN(C)C)c(=O)n(c43)c21` [Example 54, 2-[2-(Dimethylamino)ethyl]-9-methoxy-1H-benzo[a]pyrimido [5,6,1-jk]carbazole-1,3(2H)-dione hydrochloride] the figure was 80 nM. In the test on P388 cells, `O=c1c2cccc3c4c5cccnc5ccc4n(c(=O)n1CCN1CCCC1)c23` [Example 55, 9-[2-(1-Pyrrolidinyl)ethyl]-8H-pyrido[2,3-c]pyrimido[5,6,1-jk]carbazole-8,10(9H)-dione dihydrochloride] yielded an IC50 of 11 nM. On the same count and under the same terms, in the case of `CN(C)CCn1c(=O)c2ccc(F)c3c4c5cccnc5ccc4n(c1=O)c23` [Example 56, 9-[2-(Dimethylamino)ethyl]-13-fluoro-8H-pyrido[2,3-c]pyrimido[5,6,1-jk]carbazole-8,10(9H)-dione dihydrochloride] it was 15 nM. On the same count and under the same terms, with `Cc1ccc2c(ccc3c2c2cccc4c(=O)n(CCN(C)C)c(=O)n3c42)n1` [Example 57, 9-[2-(Dimethylamino)ethyl]-3-methyl-8H-pyrido[2,3-c]pyrimido[5,6,1-jk]carbazole-8,10(9H)-dione dihydrochloride] the figure was 31 nM; with `CN(C)CCn1c(=O)c2nc3ccccc3c3c4ccc5ccccc5c4n(c1=O)c23` [Example 58, 7-[2-(Dimethylamino)ethyl]-6H-benzo[c,i]pyrimido[1,6,5-lm]-β-carboline-6,8(7H)-dione], 155 nM.
